Measurements taken from patent US20030055073A1, “Remedies for sjoegren's syndrome” (priority 2000, published 2003).

Assays:
[1] = Toxicity: maximum tolerated dose with an intravenous injection; settings: mouse, in vivo, mice
Procedure: The toxicity of the compound represented by formula (I), (IA) or (Ia) of the present invention is very low and it was confirmed that it is sufficiently safe as a medicament. For example, a maximum tolerated dose with an intravenous injection using the compound represented by formula (Ia) of the present invention is 30 mg/kg in mice.

[2] = tested on: NFS/sld female mice (thymic gland extracted on the 3rd day after birth; Sjögren's syndrome model); experiment: Gland liquid secretion after pilocarpine stimulation in model mouse of naturally crisis Sjögren's syndrome; type: in vivo; settings: 5 μg/kg/day s.c. once per day from 3 to 8 week age; 8th week, 0.5 mg/kg pilocarpine hydrochloride i.p.; measured for 35 minutes at 5 minute intervals
Procedure: (§1) NFS/sld female mice of which thymic gland have been extracted on the 3rd day after the birth have Sjögren's syndrome after 4 weeks (Journal of Immunology, 153, 2769 (1994)). The compound represented by formula (la) of the present invention was subcutaneously administered once per day (5 μg/kg/day) to the mice from 3 week age to 8 week age which were immediately before histologic grand disorder was observed. The experiment was carried out for 3 non-administered groups (pathologic control) and 5 administered groups. In the 8th week, a stimulating agent (0.5 mg/kg pilocarpine hydrochloride) was intraperitoneally administered, and an amount of salivary gland liquid and an amount of lacrimal gland liquid were measured and evaluation was carried out by tissue findings.
Tables 1 and 2 show amounts of gland liquids (salivary gland secretory liquid and lacrimal gland secretory liquid) as cumulative rates (AUC) which measured for 35 minutes at the interval of 5 minutes after the administration of the stimulating agent.

[3] = tested on: NFS/sld female mice (thymic gland extracted on the 3rd day after birth; Sjögren's syndrome model); experiment: Laesio score by tissue findings of target organs in model mouse of Sjögren's syndrome (standard of White and Casarett); type: in vivo; settings: 5 μg/kg/day s.c., 3 to 8 week age
Procedure: as §1
The score is improved at a factor of ⅓ to ½ in each gland. The score was obtained based on the standard of White and Casarett (Journal of Immunology, 112, 178 (1974)).

Structure (SMILES): C[C@H]1CC(=N)N[C@@H]2[C@H](Cl)[C@@H]21 [formula (Ia), (+)-trans-3-imino-5-methyl-7-chloro-2-azabicyclo[4.1.0]heptane]
- MTD [1]: 30 mg/kg
- Lacrimal gland secretory liquid after administration of stimulating agent AUC0-35 minutes [2]: 0.798 mm/animal weight (g)
- Salivary gland secretory liquid after administration of stimulating agent AUC0-35 minutes [2]: 15.8 μl/animal weight (g)
- laesio score improved at a factor of (versus non-administered group) ([3]; each gland, score by standard of White and Casarett): ⅓ to ½
- inhibition effect on laesio for each target organ ([3]; submaxillary salivary gland, sublingual gland, parotid gland, lacrimal gland, FIG. 1): significant inhibition effects on laesio
